The record followed here is patent US20240391965A1, “STAPLED ANTIMICROBIAL PEPTIDES (STAMPS) AND USES THEREOF” (Lytica Therapeutics, Inc., priority 2021, published 2024).

Each structure is given as a SMILES string. ≈ marks a conversion by molar mass, not a printed value. Starred links: 1 amine or outer side, 2 acyl side, 3 side chain; linkers in the order of their positions; H or OH if unused. Positions of bridges follow the written chain, without caps; N, C: chain ends. Residues, ends and D or L forms follow the SMILES beside them. Biphenyl(4,4'-CH2)2 = c1cc(-c2ccc(C[*:2])cc2)ccc1C[*:1]; mXylylene = c1cc(C[*:1])cc(C[*:2])c1; pXylylene = c1cc(C[*:2])ccc1C[*:1]; X1 = C(=CC[*:2])C[*:1]

Series [1] in a line: 90 minute cytotoxicity assay (LDH release), renal toxicity. It is filed as cell-based. The source says: In some embodiments, a peptide provided herein has renal toxicity that is at least 10% (e.g., at least 15%, at least 20%, at least 25%, at least 30%, at least 35%, at least 40%, at least 45%, at least 50%, at least 55%, at least 60%, at least 65%, at least 65%, at least 70%, at least 75%, at least 80%, at least 85%, at least 90%, at least 95%, at least 99%) lower than the renal toxicity of the reference. The renal toxicity of a peptide can be measured in vitro using a renal proximal tubule epithelial cell (RPTEC) renal toxicity assay.
(§1) Cell culture: RPTEC were maintained in MEM media supplemented with growth factors. HEPG2 cell line was maintained in Eagle's Minimum Essential Medium (EMEM) supplemented with fetal bovine serum to a final concentration of 10%.
90 minute cytotoxicity assay: Cells were plated in a 96-well format, and after overnight incubation, media was replaced with fresh media. Serial dilutions of StAMPs from a 5 mg/mL water stock, or vehicle, were added to the cells in a final volume of 100 μl. After incubating at 37° C. for 90 min, 50 μl of cell culture media was transferred to a clear 96-well plate, incubated with 50 μl of lactate dehydrogenase (LDH) assay reagent for 10 min, and absorbance measured at 490 nm on a microplate reader.
(§2) Renal toxicity was measured after 90 minutes of incubation, while liver toxicity was measured after 48 hours of incubation with StAMPs. N/A=not tested.
(Release of lactate dehydrogenase indicates damage to the cell membrane.)

Series [2] in a line: 48 hours cytotoxicity assay (CellTiter-Glo), liver toxicity. It is filed as cell-based, human.
Text: In some embodiments, a peptide provided herein has hepatic toxicity that is at least 10% (e.g., at least 15%, at least 20%, at least 25%, at least 30%, at least 35%, at least 40%, at least 45%, at least 50%, at least 55%, at least 60%, at least 65%, at least 65%, at least 70%, at least 75%, at least 80%, at least 85%, at least 90%, at least 95%, at least 99%) lower than the hepatic toxicity of the reference. The hepatic toxicity of a peptide can be measured in vitro using a human liver cells (e.g., HepG2) toxicity assay.
as §1
48 hours cytotoxicity assay: Cells were plated in a 96-well format, and after 4 hour incubation to allow attachment, serial dilutions of StAMPs from a 5 mg/mL water stock, or vehicle, were then added to the cells in a final volume of 100 μl. After incubating at 37° C. for 48 hours, 100 μl of CellTiter-Glo® reagent was added to the cells, and the plates were incubated 10 minutes at room temperature. Luminescence was then measured on a microplate reader.
as §2
(ATP-based viability assays read luminescence as a measure of living cells.)

For the compound `CC[C@H](C)[C@H](NC(=O)CN)C(=O)N[C@@H](Cc1ccccc1)C(=O)N[C@@H](CO)C(=O)N[C@@H](CCCCN)C(=O)N[C@@H](CC(C)C)C(=O)N[C@@H](C)C(=O)NCC(=O)N[C@@H](CCCCN)C(=O)N[C@@H](CCCCN)C(=O)N[C@H](C(=O)N[C@@H](CCCCN)C(=O)N[C@@H](CC(N)=O)C(=O)N[C@H]1CSCc2ccc(cc2)CSC[C@@H](C(=O)N[C@@H](CC(C)C)C(=O)N[C@@H](CCCCN)C(=O)NCC(N)=O)NC(=O)[C@H](CO)NC(=O)[C@H]([C@@H](C)CC)NC(=O)[C@H](CC(C)C)NC1=O)[C@@H](C)CC` [compound 27] (H-GIFSKLAGKKIKNCLISCLKG-NH2; linker 14-18 via pXylylene; N-terminus assumed), the IC50 in series [1] and in series [2] was > 200 µg/mL each time.
`CC[C@H](C)[C@H](NC(=O)[C@H](CC(C)C)NC(=O)[C@H](CC(C)C)NC(=O)[C@H](CC(N)=O)NC(=O)[C@H](CCCCN)NC(=O)[C@@H](NC(=O)[C@H](CCCCN)NC(=O)[C@H](CCCCN)NC(=O)CNC(=O)[C@H](C)NC(=O)[C@H](CC(C)C)NC(=O)[C@@H]1CSCC=CCSC[C@H](N)C(=O)N[C@@H]([C@@H](C)CC)C(=O)N[C@@H](Cc2ccccc2)C(=O)N[C@@H](CO)C(=O)N1)[C@@H](C)CC)C(=O)N[C@@H](CO)C(=O)NCC(=O)N[C@@H](CC(C)C)C(=O)N[C@@H](CCCCN)C(=O)NCC(N)=O` [compound 38] (H-CIFSCLAGKKIKNLLISGLKG-NH2; linker 1-5 via X1; N-terminus assumed): the IC50 in series [1] and in series [2] was > 200 µg/mL each time.
`CC[C@H](C)[C@H](NC(=O)CN)C(=O)N[C@@H](Cc1ccccc1)C(=O)N[C@@H](CO)C(=O)N[C@@H](CCCCN)C(=O)N[C@@H](CC(C)C)C(=O)N[C@H]1CSCc2ccc(cc2)-c2ccc(cc2)CSC[C@@H](C(=O)N[C@@H](CC(C)C)C(=O)N[C@H](C(=O)N[C@@H](CO)C(=O)NCC(=O)N[C@@H](CC(C)C)C(=O)N[C@@H](CCCCN)C(=O)NCC(N)=O)[C@@H](C)CC)NC(=O)[C@H](CC(N)=O)NC(=O)[C@H](CCCCN)NC(=O)[C@H]([C@@H](C)CC)NC(=O)[C@H](CCCCN)NC(=O)[C@H](CCCCN)NC(=O)CNC1=O` [compound 88] (H-GIFSKLCGKKIKNCLISGLKG-NH2; linker 7-14 via Biphenyl(4,4'-CH2)2; N-terminus assumed): the IC50 in series [1] worked out at 13 µg/mL (≈ 5.45 µM); in series [2] it was 15 µg/mL (≈ 6.29 µM).
The corresponding values for `CC[C@H](C)[C@H](NC(=O)CN)C(=O)N[C@@H](Cc1ccccc1)C(=O)N[C@@H](CO)C(=O)N[C@@H](CCCCN)C(=O)N[C@@H](CC(C)C)C(=O)N[C@@H](C)C(=O)NCC(=O)N[C@@H](CCCCN)C(=O)N[C@@H](CCCCN)C(=O)N[C@H](C(=O)N[C@@H](CCCCN)C(=O)N[C@H]1CSCc2cccc(c2)CSC[C@@H](C(=O)NCC(=O)N[C@@H](CC(C)C)C(=O)N[C@@H](CCCCN)C(=O)NCC(N)=O)NC(=O)[C@H]([C@@H](C)CC)NC(=O)[C@H](CC(C)C)NC(=O)[C@H](CC(C)C)NC1=O)[C@@H](C)CC` [compound 23] (H-GIFSKLAGKKIKCLLICGLKG-NH2; linker 13-17 via mXylylene; N-terminus assumed) are 52 µg/mL (≈ 22.7 µM) and 97 µg/mL (≈ 42.3 µM).
The like results for `CC[C@H](C)[C@H](NC(=O)CN)C(=O)N[C@@H](Cc1ccccc1)C(=O)N[C@@H](CO)C(=O)N[C@@H](CCCCN)C(=O)N[C@H]1CSCc2cccc(c2)CSC[C@@H](C(=O)N[C@H](C(=O)N[C@@H](CCCCN)C(=O)N[C@@H](CC(N)=O)C(=O)N[C@@H](CC(C)C)C(=O)N[C@@H](CC(C)C)C(=O)N[C@H](C(=O)N[C@@H](CO)C(=O)NCC(=O)N[C@@H](CC(C)C)C(=O)N[C@@H](CCCCN)C(=O)NCC(N)=O)[C@@H](C)CC)[C@@H](C)CC)NC(=O)[C@H](CCCCN)NC(=O)CNC(=O)[C@H](C)NC1=O` [compound 41] (H-GIFSKCAGKCIKNLLISGLKG-NH2; linker 6-10 via mXylylene; N-terminus assumed) were, in that order, 58 µg/mL (≈ 25.8 µM) and 21 µg/mL (≈ 9.33 µM).
The like results for `CC[C@H](C)[C@H](NC(=O)CN)C(=O)N[C@@H](Cc1ccccc1)C(=O)N[C@@H](CO)C(=O)N[C@@H](CCCCN)C(=O)N[C@@H](CC(C)C)C(=O)N[C@H]1CSCc2cccc(c2)CSC[C@@H](C(=O)N[C@@H](CCCCN)C(=O)N[C@@H](CC(N)=O)C(=O)N[C@@H](CC(C)C)C(=O)N[C@@H](CC(C)C)C(=O)N[C@H](C(=O)N[C@@H](CO)C(=O)NCC(=O)N[C@@H](CC(C)C)C(=O)N[C@@H](CCCCN)C(=O)NCC(=O)NCC(=O)NCC(=O)N[C@@H](CCCCN)C(=O)O)[C@@H](C)CC)NC(=O)[C@H](CCCCN)NC(=O)[C@H](CCCCN)NC(=O)CNC1=O` [compound 94] (H-GIFSKLCGKKCKNLLISGLKGGGK-OH; linker 7-11 via mXylylene; N-terminus assumed) were, in that order, 168 µg/mL (≈ 65.8 µM) and > 200 µg/mL.
As for `CC[C@H](C)[C@H](NC(=O)CN)C(=O)N[C@@H](Cc1ccccc1)C(=O)N[C@@H](CO)C(=O)N[C@@H](CCCCN)C(=O)N[C@@H](CC(C)C)C(=O)N[C@H]1CSCc2cccc(c2)CSC[C@@H](C(=O)N[C@@H](CCCCN)C(=O)N[C@@H](CC(N)=O)C(=O)N[C@@H](CC(C)C)C(=O)N[C@@H](CC(C)C)C(=O)N[C@H](C(=O)N[C@@H](CO)C(=O)NCC(=O)N[C@@H](CC(C)C)C(=O)N[C@@H](CCCCN)C(=O)NCC(=O)O)[C@@H](C)CC)NC(=O)[C@H](CCCCN)NC(=O)[C@H](CCCCN)NC(=O)CNC1=O` [compound 91] (H-GIFSKLCGKKCKNLLISGLKG-OH; linker 7-11 via mXylylene; N-terminus assumed), the IC50 in series [1] was > 200 µg/mL.
The same measure, in the same setting: to `CC[C@H](C)[C@H](NC(=O)CN)C(=O)N[C@@H](Cc1ccccc1)C(=O)N[C@@H](CO)C(=O)N[C@@H](CCCCN)C(=O)N[C@@H](CC(C)C)C(=O)N[C@@H](C)C(=O)NCC(=O)N[C@@H](CCCCN)C(=O)N[C@H]1CSCc2ccc(cc2)-c2ccc(cc2)CSC[C@@H](C(=O)NCC(=O)N[C@@H](CC(C)C)C(=O)N[C@@H](CCCCN)C(=O)NCC(N)=O)NC(=O)[C@H]([C@@H](C)CC)NC(=O)[C@H](CC(C)C)NC(=O)[C@H](CC(C)C)NC(=O)[C@H](CC(N)=O)NC(=O)[C@H](CCCCN)NC(=O)[C@H]([C@@H](C)CC)NC1=O` [compound 74] (H-GIFSKLAGKCIKNLLICGLKG-NH2; linker 10-17 via Biphenyl(4,4'-CH2)2; N-terminus assumed) belongs 4 µg/mL (≈ 1.7 µM).
In the case of `CC[C@H](C)[C@H](NC(=O)CN)C(=O)N[C@@H](Cc1ccccc1)C(=O)N[C@@H](CO)C(=O)N[C@@H](CCCCN)C(=O)N[C@@H](CC(C)C)C(=O)N[C@H]1CSCc2ccc(cc2)CSC[C@@H](C(=O)N[C@@H](CCCCN)C(=O)N[C@@H](CC(N)=O)C(=O)N[C@@H](CC(C)C)C(=O)N[C@@H](CC(C)C)C(=O)N[C@H](C(=O)N[C@H]2CSCc3ccc(cc3)CSC[C@@H](C(N)=O)NC(=O)[C@H](CCCCN)NC(=O)[C@H](CC(C)C)NC(=O)CNC2=O)[C@@H](C)CC)NC(=O)[C@H](CCCCN)NC(=O)[C@H](CCCCN)NC(=O)CNC1=O` [compound 90] (H-GIFSKLCGKKCKNLLICGLKC-NH2; linker 7-11, 17-21 via pXylylene; N-terminus assumed), the IC50 in series [1] (90 minutes of incubation, LDH release, read-out: Inhibitory Concentration at 50% Cytotoxicity (IC50) Human Renal Proximal Tubule Epithelial Cells (RPTEC)) was > 200 µg/mL.
As for `CC[C@H](C)[C@H](NC(=O)CN)C(=O)N[C@@H](Cc1ccccc1)C(=O)N[C@@H](CO)C(=O)N[C@@H](CCCCN)C(=O)N[C@@H](CC(C)C)C(=O)N[C@@H](C)C(=O)NCC(=O)N[C@@H](CCCCN)C(=O)N[C@@H](CCCCN)C(=O)N[C@H](C(=O)N[C@@H](CCCCN)C(=O)N[C@@H](CC(N)=O)C(=O)N[C@H]1CSCc2ccc(cc2)-c2ccc(cc2)CSC[C@@H](C(N)=O)NC(=O)[C@H](CCCCN)NC(=O)[C@H](CC(C)C)NC(=O)CNC(=O)[C@H](CO)NC(=O)[C@H]([C@@H](C)CC)NC(=O)[C@H](CC(C)C)NC1=O)[C@@H](C)CC` [compound 86] (H-GIFSKLAGKKIKNCLISGLKC-NH2; linker 14-21 via Biphenyl(4,4'-CH2)2; N-terminus assumed), in series [2], the IC50 was determined as 9 µg/mL (≈ 3.75 µM).
`CC[C@H](C)[C@H](NC(=O)[C@H](CC(C)C)NC(=O)[C@H](CC(C)C)NC(=O)[C@H](CC(N)=O)NC(=O)[C@H](CCCCN)NC(=O)[C@@H](NC(=O)[C@H](CCCCN)NC(=O)[C@H](CCCCN)NC(=O)CNC(=O)[C@H](C)NC(=O)[C@@H]1CSCC=CCSC[C@H](NC(=O)CN)C(=O)N[C@@H](Cc2ccccc2)C(=O)N[C@@H](CO)C(=O)N[C@@H](CCCCN)C(=O)N1)[C@@H](C)CC)C(=O)N[C@@H](CO)C(=O)NCC(=O)N[C@@H](CC(C)C)C(=O)N[C@@H](CCCCN)C(=O)NCC(N)=O` [compound 48] (H-GCFSKCAGKKIKNLLISGLKG-NH2; linker 2-6 via X1; N-terminus assumed): in series [2], the IC50 is > 800 µg/mL.
